Values joined by “and” are separate entries in the source; they are usually repeats but may differ in a detail not shown here. Identical values can stand only once.
Columns and labels:
Test in all cases: Kinase inhibitor library screening, PrestoBlue cell viability, 1 or 10 μM, 72 h
501Mel cells (parental) = settings: for Cell viability in kinase inhibitor library screening, 501Mel Parental, 1μΜ / Cell viability in kinase inhibitor library screening, 501Mel Parental, 10μΜ: 72 h, in %
Summary of the method: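 Readout: PrestoBlue signal on a monochromator plate reader, given as percent viability relative to untreated controls. Parental and drug-resistant (Vemurafenib XP, Dabrafenib GP) sublines were tested; at least duplicates per line.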

[1] = system: 501Mel-GP cells (Dabrafenib-resistant); settings: for Cell viability in kinase inhibitor library screening, 501Mel GP, 1μΜ / Cell viability in kinase inhibitor library screening, 501Mel GP, 10μΜ: 72 h, in %
[2] = system: 501Mel-XP cells (Vemurafenib-resistant); settings: for Cell viability in kinase inhibitor library screening, 501Mel XP, 1μΜ / Cell viability in kinase inhibitor library screening, 501Mel XP, 10μΜ: 72 h, in %
A375 cells (parental) = settings: for Cell viability in kinase inhibitor library screening, A375 Parental, 10μΜ / Cell viability in kinase inhibitor library screening, A375 Parental, 1μΜ: 72 h
[3] = system: A375-GP cells (Dabrafenib-resistant); settings: for Cell viability in kinase inhibitor library screening, A375 GP, 1μΜ / Cell viability in kinase inhibitor library screening, A375 GP, 10μΜ: 72 h
[4] = system: A375-XP cells (Vemurafenib-resistant); settings: for Cell viability in kinase inhibitor library screening, A375 XP, 1μΜ / Cell viability in kinase inhibitor library screening, A375 XP, 10μΜ: 72 h
IGR37 cells (parental) = settings: for Cell viability in kinase inhibitor library screening, IGR37 Parental, 1μΜ / Cell viability in kinase inhibitor library screening, IGR37 Parental, 10μΜ: 72 h, in %
[5] = system: IGR37-GP cells (Dabrafenib-resistant); settings: for Cell viability in kinase inhibitor library screening, IGR37 GP, 10μΜ / Cell viability in kinase inhibitor library screening, IGR37 GP, 1μΜ: 72 h; for Cell viability in kinase inhibitor library screening, IGR37 GP, 1μΜ: in %
[6] = system: IGR37-XP cells (Vemurafenib-resistant); settings: for Cell viability in kinase inhibitor library screening, IGR37 XP, 10μΜ / Cell viability in kinase inhibitor library screening, IGR37 XP, 1μΜ: 72 h; for Cell viability in kinase inhibitor library screening, IGR37 XP, 1μΜ: in %

Cc1cc(C(C)Nc2ccccc2)c2nc(N3CCOCC3)cc(=O)n2c1 (stereo not drawn) [TGX-221]
Cell viability in kinase inhibitor library screening, 501Mel Parental, 1μΜ (501Mel cells (parental)): 99.4
Cell viability in kinase inhibitor library screening, 501Mel Parental, 10μΜ (501Mel cells (parental)): 97.1
Cell viability in kinase inhibitor library screening, 501Mel GP, 1μΜ [1]: 102.9
Cell viability in kinase inhibitor library screening, 501Mel GP, 10μΜ [1]: 78.5
Cell viability in kinase inhibitor library screening, 501Mel XP, 1μΜ [2]: 92.5
Cell viability in kinase inhibitor library screening, 501Mel XP, 10μΜ [2]: 67.8
Cell viability in kinase inhibitor library screening, A375 Parental, 10μΜ (A375 cells (parental)): 94.9
Cell viability in kinase inhibitor library screening, A375 Parental, 1μΜ (A375 cells (parental)): 103.0
Cell viability in kinase inhibitor library screening, A375 GP, 1μΜ [3]: 95.9
Cell viability in kinase inhibitor library screening, A375 GP, 10μΜ [3]: 91.3
Cell viability in kinase inhibitor library screening, A375 XP, 1μΜ [4]: 107.8
Cell viability in kinase inhibitor library screening, A375 XP, 10μΜ [4]: 99.8
Cell viability in kinase inhibitor library screening, IGR37 Parental, 1μΜ (IGR37 cells (parental)): 97.4
Cell viability in kinase inhibitor library screening, IGR37 Parental, 10μΜ (IGR37 cells (parental)): 96.6
Cell viability in kinase inhibitor library screening, IGR37 GP, 10μΜ [5]: 85.9%
Cell viability in kinase inhibitor library screening, IGR37 GP, 1μΜ [5]: 93.0
Cell viability in kinase inhibitor library screening, IGR37 XP, 10μΜ [6]: 61.6%
Cell viability in kinase inhibitor library screening, IGR37 XP, 1μΜ [6]: 95.0

CO[C@H]1C[C@@H]2CC[C@@H](C)[C@@](O)(O2)C(=O)C(=O)N2CCCC[C@H]2C(=O)O[C@H]([C@H](C)C[C@@H]2CC[C@@H](OC(=O)C(C)(CO)CO)[C@H](OC)C2)CC(=O)[C@H](C)/C=C(\C)[C@@H](O)[C@@H](OC)C(=O)[C@H](C)C[C@H](C)/C=C/C=C/C=C/1C [Temsirolimus (Torisel)]
Cell viability in kinase inhibitor library screening, 501Mel Parental, 1μΜ (501Mel cells (parental)): 83.5
Cell viability in kinase inhibitor library screening, 501Mel Parental, 10μΜ (501Mel cells (parental)): 79.5
Cell viability in kinase inhibitor library screening, 501Mel GP, 1μΜ [1]: 69.5
Cell viability in kinase inhibitor library screening, 501Mel GP, 10μΜ [1]: 60.0
Cell viability in kinase inhibitor library screening, 501Mel XP, 1μΜ [2]: 55.1
Cell viability in kinase inhibitor library screening, 501Mel XP, 10μΜ [2]: 41.2
Cell viability in kinase inhibitor library screening, A375 Parental, 10μΜ (A375 cells (parental)): 73.5
Cell viability in kinase inhibitor library screening, A375 Parental, 1μΜ (A375 cells (parental)): 78.4
Cell viability in kinase inhibitor library screening, A375 GP, 1μΜ [3]: 81.2
Cell viability in kinase inhibitor library screening, A375 GP, 10μΜ [3]: 73.7
Cell viability in kinase inhibitor library screening, A375 XP, 1μΜ [4]: 81.1
Cell viability in kinase inhibitor library screening, A375 XP, 10μΜ [4]: 78.8
Cell viability in kinase inhibitor library screening, IGR37 Parental, 1μΜ (IGR37 cells (parental)): 79.0
Cell viability in kinase inhibitor library screening, IGR37 Parental, 10μΜ (IGR37 cells (parental)): 82.7
Cell viability in kinase inhibitor library screening, IGR37 GP, 10μΜ [5]: 41.7%
Cell viability in kinase inhibitor library screening, IGR37 GP, 1μΜ [5]: 91.9
Cell viability in kinase inhibitor library screening, IGR37 XP, 10μΜ [6]: 5.5%
Cell viability in kinase inhibitor library screening, IGR37 XP, 1μΜ [6]: 96.0

CC[C@H](CO)Nc1nc(NCc2ccccc2)c2ncn(C(C)C)c2n1 [Roscovitine (Seliciclib, CYC202)]
cell viability (kinase inhibitor library screening) (501Mel cells (parental)): 95.0% and 93.4%
cell viability (kinase inhibitor library screening) [1]: 85.2%
cell viability (kinase inhibitor library screening) [2]: 93.6% and 61.7%
cell viability (kinase inhibitor library screening) (A375 cells (parental)): 90.5%
cell viability (kinase inhibitor library screening) [3]: 109.1% and 86.5%
cell viability (kinase inhibitor library screening) [4]: 109.6% and 86.5%
cell viability (kinase inhibitor library screening) (IGR37 cells (parental)): 85.4% and 104.3%
cell viability (kinase inhibitor library screening) [5]: 93.8% and 90.7%
cell viability (kinase inhibitor library screening) [6]: 96.5% and 59.2%

Source: paper PMC6364417, “Kinase inhibitor library screening identifies synergistic drug combinations effective in sensitive and resistant melanoma cells” (Journal of Experimental & Clinical Cancer Research : CR, 2019)
